Holding throughout (assay type): binding
For test [1], the target named is T1, OXER1 (Homo sapiens, UniProt Q8TDS5).
T1 construct: purchased Promega (in-house HiBiT-GPCR construct library, NanoBRET)
Description: NanoBRET screen HiBiT-OXER1 in HEK293. Here is the method: (§1) Each tracer candidate was screened across the entire library of HiBiT-GPCR constructs using NanoBRET as the detection modality. As depicted in Figure 4A, the specificity of interactions was evaluated through decrease in BRET due to competitive displacement of a bound tracer by excess parental compound. Each tracer was analyzed for binding to each HiBiT-GPCR fusion in the absence and in the presence of competing parental compound. Briefly, HEK293 cells were transfected with HiBiT-GPCR constructs diluted into promoterless DNA to reduce expression and maximize translocation to the cell surface. Each tracer candidate was then screened at concentrations of 1 μM and 0.1 μM across cells expressing these fusions. Cells were treated for 1.5 h with tracer either alone or in the presence of 20 μM competing parental compound (i.e., control). BRET was measured upon addition of purified LgBiT and subsequent complementation with HiBiT genetically fused to a GPCR. The specificity of interactions was assessed through a decrease in BRET signal due to competitive displacement of the bound tracer. To further gauge the robustness of these interactions, the fold response over the control (i.e., BRETtracer/BRETcontrol) was calculated. We chose a 1.5-fold response, which translates to ≥7-fold signal over noise as the minimal threshold required to score an interaction as positive. […]. Below we highlight the screening results obtained for our exemplary fluorescent tracers based on Clozapine, Amitriptyline and AZD1283.
(§2) HiBiT-GPCR DNA constructs were diluted in 10 mM Tris pH 8 to a final concentration of 0.01 μg/μL, arrayed in 96-well plates and stored at −20 °C. For transfection, HEK293 cells were suspended in Opti-MEM (without phenol red) supplemented with 2% fetal bovine serum (Seradigm) and 100 units/mL penicillin–streptomycin (Gibco) at a final concentration of 220,000 cells/mL and dispensed into white 96-well plates at 90 μL/well. Subsequent transfections and screens were carried using an Agilent Bravo Automated Liquid Handling Platform. First, the 96-well HiBiT DNA arrays were diluted 25-fold in Opti-MEM (without serum or phenol red) to a final concentration of 0.0004 μg/μL and 20 μL of the diluted DNAs were transferred into new 96-well plates. Next, promoterless carrier DNA (1 μg/μL) was diluted 25-fold (0.04 μg/μL) and then dispensed into the diluted arrays at 20 μL/well. Following brief mixing, Viafect transfection reagent (Promega) diluted 16-fold into Opti-MEM was dispensed into the plates at 40 μL/well. After mixing by pipetting, plates were incubated for 10 min on the pipetting station deck. The DNA-transfection reagent complexes were then added to plates containing cells. To facilitate the screen, 10 μL of DNA-transfection reagent complexes were added in duplicates to the top 4 and bottom 4 rows, resulting in two identical 48-well arrays per plate. Plates with transfected cells were incubated for 18–20 h at 37 °C/5% CO2. A screen of each tracer across the entire library using two different concentrations requires duplicate plates of transfected cells. Depending on the number of tracers being screened, transfections can be scaled up using the same ratios. The next day, for each tracer, four 20× screening solutions in tracer dilution buffer (Promega) were prepared: two duplicates at final concentration of 20 μM and two duplicates at a final concentration of 2 μM. A competing unmodified compound was added to one of each duplicate at a final concentration of 400 μM. The four resulting solutions were diluted 4-fold in Opti-MEM without serum or phenol red to generate 5× solutions (5 µM and 0.5 µM tracer +/− 100 μM competing compound). To screen the library, a BioTek MultiFlo FX liquid dispenser was used to dispense 22.5 µL of tracer solution to the top 4 rows and 22.5 µL tracer + competing compound solution to the 4 bottom rows. Plates were briefly mixed on an orbital shaker and incubated for 1.5 h at room temperature. […]
(In general: Bioluminescence resonance energy transfer reports proximity on the nanometre scale.)

Test [2] addresses T2, NPBWR1 (Homo sapiens, UniProt P48145).
T2 construct: purchased Promega (in-house HiBiT-GPCR construct library, NanoBRET)
T2 sequence (P48145 1-328): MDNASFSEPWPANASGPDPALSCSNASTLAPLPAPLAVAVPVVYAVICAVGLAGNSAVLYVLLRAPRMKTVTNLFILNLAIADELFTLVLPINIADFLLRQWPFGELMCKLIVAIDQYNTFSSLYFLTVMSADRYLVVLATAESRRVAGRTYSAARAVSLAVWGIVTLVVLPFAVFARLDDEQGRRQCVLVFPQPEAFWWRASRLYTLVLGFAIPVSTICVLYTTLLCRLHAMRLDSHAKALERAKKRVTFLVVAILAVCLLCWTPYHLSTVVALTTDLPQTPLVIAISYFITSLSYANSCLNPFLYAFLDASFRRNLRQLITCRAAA
As to the kind of experiment: NanoBRET screen HiBiT-NPBWR1 in HEK293. The method, then: as §1, §2

In test [3] the target is T3, NPFFR2 (Homo sapiens, UniProt Q9Y5X5).
T3 construct: purchased Promega (in-house HiBiT-GPCR construct library, NanoBRET)
T3 sequence (Q9Y5X5 whole entry): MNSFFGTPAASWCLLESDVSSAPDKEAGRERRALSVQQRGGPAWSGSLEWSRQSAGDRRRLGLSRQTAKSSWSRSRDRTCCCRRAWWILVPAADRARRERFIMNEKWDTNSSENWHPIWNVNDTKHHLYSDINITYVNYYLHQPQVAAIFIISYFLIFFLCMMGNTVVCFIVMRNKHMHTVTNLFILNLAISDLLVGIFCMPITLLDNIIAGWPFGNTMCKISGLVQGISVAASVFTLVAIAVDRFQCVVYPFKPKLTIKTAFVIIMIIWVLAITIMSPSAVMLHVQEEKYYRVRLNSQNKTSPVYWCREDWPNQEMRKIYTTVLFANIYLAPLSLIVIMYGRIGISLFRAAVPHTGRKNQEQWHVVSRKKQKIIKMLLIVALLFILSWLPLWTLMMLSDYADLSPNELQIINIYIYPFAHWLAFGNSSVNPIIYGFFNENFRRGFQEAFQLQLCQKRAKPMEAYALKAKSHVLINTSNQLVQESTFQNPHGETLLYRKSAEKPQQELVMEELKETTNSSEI
As to the kind of experiment: NanoBRET screen HiBiT-NPFFR2 in HEK293. The method, then: as §1, §2

Test [4] concerns the target T4, TBXA2R (Homo sapiens, UniProt P21731).
T4 construct: purchased Promega (in-house HiBiT-GPCR construct library, NanoBRET)
T4 sequence (P21731 1-343): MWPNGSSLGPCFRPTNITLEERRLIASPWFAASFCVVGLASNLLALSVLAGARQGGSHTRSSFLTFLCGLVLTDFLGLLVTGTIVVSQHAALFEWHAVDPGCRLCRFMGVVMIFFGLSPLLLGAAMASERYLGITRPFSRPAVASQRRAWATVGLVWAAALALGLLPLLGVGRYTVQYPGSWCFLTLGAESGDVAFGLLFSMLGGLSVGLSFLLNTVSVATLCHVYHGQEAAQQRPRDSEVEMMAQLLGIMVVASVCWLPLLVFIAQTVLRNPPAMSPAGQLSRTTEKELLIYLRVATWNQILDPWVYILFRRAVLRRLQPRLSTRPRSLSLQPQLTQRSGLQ
As to the kind of experiment: NanoBRET screen HiBiT-TBXA2R in HEK293. The method, then: as §1, §2

The target in test [5] is T5, CX3CR1 (Homo sapiens, UniProt P49238).
T5 construct: purchased Promega (in-house HiBiT-GPCR construct library, NanoBRET)
T5 sequence (P49238 1-355): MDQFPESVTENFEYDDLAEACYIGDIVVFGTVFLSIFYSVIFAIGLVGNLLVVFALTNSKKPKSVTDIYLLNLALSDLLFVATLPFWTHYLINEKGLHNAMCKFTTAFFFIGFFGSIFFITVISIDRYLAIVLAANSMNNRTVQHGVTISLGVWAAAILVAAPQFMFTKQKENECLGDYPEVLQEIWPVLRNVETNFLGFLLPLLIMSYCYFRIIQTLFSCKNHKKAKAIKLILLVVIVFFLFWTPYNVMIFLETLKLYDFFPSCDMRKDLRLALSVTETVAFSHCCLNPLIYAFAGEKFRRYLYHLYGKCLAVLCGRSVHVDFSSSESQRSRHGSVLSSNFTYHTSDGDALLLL
As to the kind of experiment: NanoBRET screen HiBiT-CX3CR1 in HEK293. The method, then: as §1, §2

T1 sequence (Q8TDS5 whole entry): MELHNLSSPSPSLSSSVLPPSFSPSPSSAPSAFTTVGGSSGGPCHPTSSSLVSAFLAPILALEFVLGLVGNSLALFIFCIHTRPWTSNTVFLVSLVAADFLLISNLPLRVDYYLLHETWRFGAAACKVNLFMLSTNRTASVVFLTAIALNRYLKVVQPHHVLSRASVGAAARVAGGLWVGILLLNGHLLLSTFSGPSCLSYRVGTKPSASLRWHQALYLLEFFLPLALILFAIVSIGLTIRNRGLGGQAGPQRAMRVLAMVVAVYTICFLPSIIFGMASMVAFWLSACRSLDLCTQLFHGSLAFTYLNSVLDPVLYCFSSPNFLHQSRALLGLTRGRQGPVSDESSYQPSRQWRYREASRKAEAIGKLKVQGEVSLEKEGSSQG

Turning to `COc1ccccc1N1CCN(CCCCN2C(=O)c3ccc(CNC(=O)CCOCCNC(=O)c4ccc(CNC(=O)CCc5ccc6n5[B-](F)(F)[N+]5=C(c7ccc[nH]7)C=CC5=C6)cc4)cc3C2=O)CC1` [NAN-190-3-NB590], the “NanoBRET Fold Response” value worked out at 1.34 in test [1] (OXER1, tracer 0.1μM); 0.63 in test [1] (OXER1, tracer 1μM); 0.92 in test [2] (NPBWR1, tracer 0.1μM); 0.91 in test [2] (NPBWR1, tracer 1μM); 1.02 in test [3] (NPFFR2, tracer 0.1μM); 1.01 in test [3] (NPFFR2, tracer 1μM). Besides, the “NanoBRET Fold Response” value was 1.08 in test [4] (TBXA2R, tracer 0.1μM); 1.15 in test [4] (TBXA2R, tracer 1μM); 0.90 in test [5] (CX3CR1, tracer 0.1μM); 1.01 in test [5] (CX3CR1, tracer 1μM).

As to `O=C(CCc1ccc2n1[B-](F)(F)[N+]1=C(c3ccc[nH]3)C=CC1=C2)NCc1ccc(C(=O)NCCOCCOCCNCC(O)COc2cccc3ccccc23)cc1` (stereo not drawn) [Propranolol-3-NB590], the “NanoBRET Fold Response” value is reported as 1.09 in test [1] (OXER1, 0.1μM); 1.00 in test [1] (OXER1, 1μM); 1.03 in test [2] (NPBWR1, 0.1μM); 0.96 in test [2] (NPBWR1, 1μM); 1.01 in test [3] (NPFFR2, 0.1μM); 1.01 in test [3] (NPFFR2, 1μM). In addition, the “NanoBRET Fold Response” value in test [4] (TBXA2R, 0.1μM) amounted to 0.97; in test [4] (TBXA2R, 1μM) it was 1.09; in test [5] (CX3CR1, 0.1μM), 1.08; in test [5] (CX3CR1, 1μM), 1.03.

In the case of `COc1ccc2c(n1)c(CCNC(C)=O)cn2CCNC(=O)CCc1ccc2n1[B-](F)(F)[N+]1=C(c3ccc[nH]3)C=CC1=C2` [Azamelatonin-1-NB590], the “NanoBRET Fold Response” value was 1.39 in test [1] (0.1μM tracer); 1.06 in test [1] (1μM tracer); 0.88 in test [2] (0.1μM tracer); 0.84 in test [2] (1μM tracer); 1.16 in test [3] (0.1μM tracer); 0.97 in test [3] (1μM tracer). In addition, the “NanoBRET Fold Response” value was determined as 0.84 in test [4] (0.1μM tracer), 0.94 in test [4] (1μM tracer), 0.93 in test [5] (0.1μM tracer) and 1.05 in test [5] (1μM tracer).

Consider `O=C(CCOCCOCCOCCOCCNC(=O)CCc1ccc2n1[B-](F)(F)[N+]1=C(c3ccc[nH]3)C=CC1=C2)NCCCN1CCN(C2=Nc3ccccc3Oc3ccc(Cl)cc32)CC1` [Loxapine-a-2-NB590], for which the “NanoBRET Fold Response” value in test [1] (OXER1, tracer 0.1μM) amounted to 0.93; in test [1] (OXER1, tracer 1μM), 1.09; in test [2] (NPBWR1, tracer 0.1μM) it was 1.02; in test [2] (NPBWR1, tracer 1μM) it was 0.93; in test [3] (NPFFR2, tracer 0.1μM) it was 1.05; in test [3] (NPFFR2, tracer 1μM), 1.03. Besides, the “NanoBRET Fold Response” value in test [4] (TBXA2R, tracer 0.1μM) worked out at 0.99; in test [4] (TBXA2R, tracer 1μM), 1.03; in test [5] (CX3CR1, tracer 0.1μM), 1.05; in test [5] (CX3CR1, tracer 1μM), 0.91.

For `COc1ccccc1N1CCN(CCCCN2C(=O)c3ccc(CNC(=O)CCOCCOCCOCCOCCNC(=O)CCc4ccc5n4[B-](F)(F)[N+]4=C(c6ccc[nH]6)C=CC4=C5)cc3C2=O)CC1` [NAN-190-2-NB590], the “NanoBRET Fold Response” value is listed as 0.95 in test [1] (OXER1, tracer 0.1μM); 1.02 in test [2] (NPBWR1, tracer 0.1μM); 0.97 in test [3] (NPFFR2, tracer 0.1μM); 1.07 in test [4] (TBXA2R, tracer 0.1μM); 1.06 in test [4] (TBXA2R, tracer 1μM); 0.99 in test [5] (CX3CR1, tracer 0.1μM). The “NanoBRET Fold Response” value in test [5] (CX3CR1, tracer 1μM) was 0.86.

For the compound `CC(C)N(CC[C@H](c1ccccc1)c1cc(CCNC(=O)c2ccc(CNC(=O)CCc3ccc4n3[B-](F)(F)[N+]3=C(c5ccc[nH]5)C=CC3=C4)cc2)ccc1O)C(C)C` [Tolterodine-BZ-NB590], the “NanoBRET Fold Response” value in test [1] (OXER1, tracer 0.1μM) is 1.00; in test [1] (OXER1, tracer 1μM), 1.06; in test [2] (NPBWR1, tracer 0.1μM) it was 1.00; in test [2] (NPBWR1, tracer 1μM), 1.01; in test [3] (NPFFR2, tracer 0.1μM), 1.00; in test [3] (NPFFR2, tracer 1μM) it was 1.02. Moreover, the “NanoBRET Fold Response” value worked out at 0.91 in test [4] (TBXA2R, tracer 0.1μM); 1.03 in test [4] (TBXA2R, tracer 1μM); 0.94 in test [5] (CX3CR1, tracer 0.1μM); 0.98 in test [5] (CX3CR1, tracer 1μM).
